Reference: BindingDB's records for doi:10.1021/jm060947x (Institut D'Investigacions Biomèdiques August Pi I, 2007)

Tests used:
[1] = Displacement of [3H]YM 09151-2 from dopamine D2 receptor in lamb striatum membrane after 2 hrs
[2] = Displacement of [3H]SCH 23390 from dopamine D1 receptor in lamb striatum membrane after 1 hr
[3] = Displacement of [3H]R-PIA from adenosine A1 receptor in lamb striatum membrane after 1 hr

SMILES	Kd [1] [nM]	Kd [2] [nM]	Kd [3] [nM]
CN1C[C@H](C(=O)N[C@@H](Cc2ccc([N+](=O)[O-])cc2)C(=O)N[C@@H](Cc2ccc(F)cc2)C(=O)N2CCCC(C(N)=O)C2)C=C2c3cccc4[nH]cc(c34)C[C@H]21 (stereo partly drawn) [(6aR,9R)-N-((S)-1-((S)-1-(3-carbamoylpiperidin-1-yl)-3-(4-fluorophenyl)-1-oxopropan-2-ylamino)-3-(4-nitrophenyl)-1-oxopropan-2-yl)-7-methyl-4,6,6a,7,8,9-hexahydroindolo[4,3-fg]quinoline-9-carboxamide]	20	700	
CC(C)[C@H](NC(=O)[C@H](Cc1ccc([N+](=O)[O-])cc1)NC(=O)[C@@H]1C=C2c3cccc4[nH]cc(c34)C[C@H]2N(C)C1)C(=O)N1c2ccccc2C[C@H]1C(N)=O [(6aR,9R)-N-((S)-1-((S)-1-((S)-2-carbamoylindolin-1-yl)-3-methyl-1-oxobutan-2-ylamino)-3-(4-nitrophenyl)-1-oxopropan-2-yl)-7-methyl-4,6,6a,7,8,9-hexahydroindolo[4,3-fg]quinoline-9-carboxamide]	2000		100
CC(C)[C@H](NC(=O)[C@@H]1C=C2c3cccc4[nH]cc(c34)C[C@H]2N(C)C1)C(=O)N[C@@H](Cc1ccc(F)cc1)C(=O)N1CCC[C@H]1C(N)=O [(6aR,9R)-N-((S)-1-((S)-1-((S)-2-carbamoylpyrrolidin-1-yl)-3-(4-fluorophenyl)-1-oxopropan-2-ylamino)-3-methyl-1-oxobutan-2-yl)-7-methyl-4,6,6a,7,8,9-hexahydroindolo[4,3-fg]quinoline-9-carboxamide]	16000	600	
CC(C)[C@H](NC(=O)[C@@H]1C=C2c3cccc4[nH]cc(c34)C[C@H]2N(C)C1)C(=O)N[C@@H](Cc1ccc([N+](=O)[O-])cc1)C(=O)N1CCC[C@H]1C(N)=O [(6aR,9R)-N-((S)-1-((S)-1-((S)-2-carbamoylpyrrolidin-1-yl)-3-(4-nitrophenyl)-1-oxopropan-2-ylamino)-3-methyl-1-oxobutan-2-yl)-7-methyl-4,6,6a,7,8,9-hexahydroindolo[4,3-fg]quinoline-9-carboxamide]		7800	
CC(C)[C@H](NC(=O)[C@H](CCC1CCCCC1)NC(=O)[C@@H]1C=C2c3cccc4[nH]cc(c34)C[C@H]2N(C)C1)C(=O)N1CCC[C@H]1C(N)=O [(6aR,9R)-N-((S)-1-((S)-1-((S)-2-carbamoylpyrrolidin-1-yl)-3-methyl-1-oxobutan-2-ylamino)-4-cyclohexyl-1-oxobutan-2-yl)-7-methyl-4,6,6a,7,8,9-hexahydroindolo[4,3-fg]quinoline-9-carboxamide]		1200	
CC(C)[C@H](NC(=O)[C@H]1C=C2c3cccc4[nH]cc(c34)C[C@H]2N(C)C1)C(=O)N[C@@H](Cc1ccc([N+](=O)[O-])cc1)C(=O)N1CCC[C@H]1C(N)=O [(6aR,9S)-N-((S)-1-((S)-1-((S)-2-carbamoylpyrrolidin-1-yl)-3-(4-nitrophenyl)-1-oxopropan-2-ylamino)-3-methyl-1-oxobutan-2-yl)-7-methyl-4,6,6a,7,8,9-hexahydroindolo[4,3-fg]quinoline-9-carboxamide]		700	
